Measurements from patent US10829473B2, “Modulators of the cystic fibrosis transmembrane conductance regulator protein and methods of use” (AbbVie Overseas S.Á.R.L., priority 2017, dated 2020).
Where two headings read alike, the source gives them in different places. Marks after values point to notes of the source that are not given here.

Target: T1, F508delCFTR (Homo sapiens, UniProt P13569, DEL508-508)
T1 construct: expressed in transfected cells; host or cells: CFBE41o- human lung derived epithelial cells (CFBE41o-F508delCFTR-HRP), doxycycline-inducible
T1 sequence (P13569 with tags, fused parts or gaps DEL508-508): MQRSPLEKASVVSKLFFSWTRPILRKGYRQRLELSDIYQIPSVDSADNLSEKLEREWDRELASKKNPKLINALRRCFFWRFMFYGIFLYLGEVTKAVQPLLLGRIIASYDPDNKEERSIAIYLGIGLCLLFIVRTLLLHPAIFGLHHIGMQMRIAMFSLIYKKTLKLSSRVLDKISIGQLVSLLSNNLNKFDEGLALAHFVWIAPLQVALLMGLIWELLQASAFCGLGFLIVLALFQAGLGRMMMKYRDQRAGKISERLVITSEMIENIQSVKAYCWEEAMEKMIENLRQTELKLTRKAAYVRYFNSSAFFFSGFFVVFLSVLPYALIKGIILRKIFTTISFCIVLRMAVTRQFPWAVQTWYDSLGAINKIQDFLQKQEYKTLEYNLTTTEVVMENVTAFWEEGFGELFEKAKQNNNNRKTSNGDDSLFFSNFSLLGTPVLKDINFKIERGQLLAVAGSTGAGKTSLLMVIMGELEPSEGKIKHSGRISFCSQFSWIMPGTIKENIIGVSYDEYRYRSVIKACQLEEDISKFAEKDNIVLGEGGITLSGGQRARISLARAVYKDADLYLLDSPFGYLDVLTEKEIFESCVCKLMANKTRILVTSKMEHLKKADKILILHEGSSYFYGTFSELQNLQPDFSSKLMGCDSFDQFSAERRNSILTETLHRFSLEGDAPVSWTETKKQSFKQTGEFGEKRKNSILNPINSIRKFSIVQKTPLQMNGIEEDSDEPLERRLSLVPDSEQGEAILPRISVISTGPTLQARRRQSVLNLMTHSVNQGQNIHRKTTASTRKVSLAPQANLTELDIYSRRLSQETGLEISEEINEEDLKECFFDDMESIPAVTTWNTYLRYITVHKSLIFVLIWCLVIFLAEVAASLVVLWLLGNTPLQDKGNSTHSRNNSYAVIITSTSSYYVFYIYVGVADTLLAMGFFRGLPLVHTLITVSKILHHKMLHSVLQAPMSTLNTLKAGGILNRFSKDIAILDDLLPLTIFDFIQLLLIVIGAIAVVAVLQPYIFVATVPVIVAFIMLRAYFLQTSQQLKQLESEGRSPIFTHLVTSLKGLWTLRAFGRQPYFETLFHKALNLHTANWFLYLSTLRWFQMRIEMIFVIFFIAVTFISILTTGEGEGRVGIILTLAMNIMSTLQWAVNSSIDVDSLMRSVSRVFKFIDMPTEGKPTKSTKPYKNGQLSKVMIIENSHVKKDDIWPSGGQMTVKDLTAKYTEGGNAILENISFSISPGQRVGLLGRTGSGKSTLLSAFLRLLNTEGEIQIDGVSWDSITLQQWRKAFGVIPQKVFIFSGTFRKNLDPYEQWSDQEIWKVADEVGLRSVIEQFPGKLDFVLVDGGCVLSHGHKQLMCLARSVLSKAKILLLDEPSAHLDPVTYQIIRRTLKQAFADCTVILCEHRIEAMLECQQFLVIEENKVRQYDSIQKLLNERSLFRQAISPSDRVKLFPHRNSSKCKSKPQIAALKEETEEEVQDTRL
Experiment: Cell Surface Expression-Horse Radish Peroxidase (CSE-HRP) Assay;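 on EC50 (with co-corrector): co-corrector chromenyl benzoic acid corrector at 2 or 3 µM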
Format: cell-based
Conditions: for Maximum % activity (with co-corrector) / Emax: maximum at any tested concentration; for Emax: read-out: Maximum % activity (without co-corrector)
Method: A cellular assay for measuring the F508delCFTR cell surface expression after correction with test compounds either without or with a co-corrector (2 μM of 3-[(2R,4R)-4-({[1-(2,2-difluoro-1,3-benzodioxol-5-yl)cyclopropyl]carbonyl}amino)-7-methoxy-3,4-dihydro-2H-chromen-2-yl]benzoic acid), was developed in human lung derived epithelial cell line (CFBE4lo−) (Veit G et al, (2012) Mol Biol Cell. 23(21): 4188-4202). The development was achieved by expressing the F508delCFTR mutation along with a horseradish peroxidase (HRP) in the fourth exofacial loop, and then measuring the HRP activity using luminescence readout from these cells, CFBE410-F508delCFTR-HRP, that were incubated overnight with the test corrector compounds, either without or with the co-corrector. For this primary assay, the CFBE410-F508delCFTR-HRP cells were plated in 384-well plates (Greiner Bio-one; Cat 781080) at 4,000 cells/well along with 0.5 μg/mL doxycycline to induce the F508delCFTR-HRP expression and further incubated at 37° C., 5% CO2 for 68-72 hours. The test compounds were then added either without or with a co-corrector at the required concentrations and further incubated for 18-24 hours at 33° C. The highest concentration tested was 20 μM or 30 μM (GI-1 to GIII-36) with an 8-point concentration response curve using a 3-fold dilution in both the test compound without or with the co-corrector. Three replicate plates were run to determine one EC50. All plates contained negative controls (dimethyl sulfoxide, DMSO) and positive control (2 μM or 3 μM (GI-1 to GIII-36) of 3-[(2R,4R)-4-({[1-(2,2-difluoro-1,3-benzodioxol-5-yl)cyclopropyl]carbonyl}amino)-7-methoxy-3,4-dihydro-2H-chromen-2-yl]benzoic acid) as well as on-plate concentration response of the positive control. Post incubation, the plates were washed 5× times with Dulbecco's phosphate buffered saline (DPBS), followed by the addition of the HRP substrate, luminol (50 4), and measuring the HRP activity using luminescence readout on EnVision® Multilabel Plate Reader (Perkin Elmer; product number 2104-0010). The raw counts from the experiment were analyzed using Accelrys® Assay Explorer v3.3.
Z′ greater than 0.5 was used as passing quality control criteria for the plates.
The Z′ is defined as: 1−[3*SDPositve Control+3*SDNegative Control/Absolute(MeanPositive Control−MeanNegative Control)] wherein “SD” is standard deviation.
The % activity measured at each of the 8 test concentrations of the test compound added either without or with a co-corrector (2 μM or 3 μM (GI-1 to GIII-36) of 3-[(2R,4R)-4-({[1-(2,2-difluoro-1,3-benzodioxol-5-yl)cyclopropyl]carbonyl}amino)-7-methoxy-3,4-dihydro-2H-chromen-2-yl]benzoic acid) was normalized to the on-plate positive control using the following formulae: % activity (Test compound without co-corrector)=[(test compound without co-corrector response DMSO response)/(positive control response DMSO response)]*100 % activity (Test compound with co-corrector)=[(test compound with co-corrector response DMSO response)/(positive control response DMSO response)]*100
The maximum % activity achieved for the test compound either without or with a co-corrector at any tested concentration is presented in Table 6 along with the respective EC50's calculated using the following general sigmoidal curve with variable Hill slope equation (described as Model 42 in the Accelrys® Assay Explorer v3.3 software): y=(a−d)/(1+(x/c)b)+d
General sigmoidal curve with concentration, response, top, bottom, EC50 and Hill slope. This model describes a sigmoidal curve with an adjustable baseline, a. The equation can be used to fit curves where response is either increasing or decreasing with respect to the independent variable, “x”.
“x” is a concentration of drug under test.
“a” is the maximum response, and “d” is the minimum response
“c” is the inflection point (EGO for the curve. That is, “y” is halfway between the lower and upper asymptotes when x=c.
“b” is the slope-factor or Hill coefficient. […]

[1] = test compound alone, without co-corrector, read-out: EC50 (without co-corrector)
[2] = with co-corrector, read-out: EC50 (with co-corrector)
[3] = test compound with co-corrector
[4] = test compound without co-corrector
[5] = test compound with co-corrector, read-out: EC50 (with co-corrector)
[6] = test compound without co-corrector, read-out: EC50 (without co-corrector)

| Structure (SMILES) | EC50 [1] | Maximum % activity (with co-corrector) (with co-corrector) | EC50 [2] | Emax (without co-corrector) | EC50 (with co-corrector) [3] | Maximum % activity (with co-corrector) [3] | EC50 (without co-corrector) [4] | Emax [4] | EC50 [5] | EC50 [6] |
| --- | --- | --- | --- | --- | --- | --- | --- | --- | --- | --- |
| COc1ccc(C)cc1C1(C(=O)NS(=O)(=O)c2cccc3nc(N)ccc23)CC1 [Example I-79, N-(2-aminoquinoline-5-sulfonyl)-1-(2-methoxy-5-methylphenyl)cyclopropane-1-carboxamide] | < 3 µM | +++ (≥350) | < 3 µM | > 150% |  |  |  |  |  |  |
| COc1cnc(OCC2CC2)c(C2(C(=O)NS(=O)(=O)c3cccc4ncccc34)CC2)c1 [Example GI-87, 1-[2-(cyclopropylmethoxy)-5-methoxypyridin-3-yl]-N-(quinoline-5-sulfonyl)cyclopropane-1-carboxamide] |  |  |  |  |  | +++ (≥350) |  | > 150% | < 3 µM | 3 to 10 µM |
| COc1ccc(C)c(OC)c1C1(C(=O)NS(=O)(=O)c2cccc3ncccc23)CC1 [Example I-41, 1-(2,6-dimethoxy-3-methylphenyl)-N-(quinoline-5-sulfonyl)cyclopropane-1-carboxamide] | < 3 µM | +++ (≥350) | < 3 µM | > 150% |  |  |  |  |  |  |
| CCc1cnc(OCC(C)C)c(C2(C(=O)NS(=O)(=O)c3cccc4[nH]ccc34)CC2)c1 [Example GI-47, 1-[5-ethyl-2-(2-methylpropoxy)pyridin-3-yl]-N-(1H-indole-4-sulfonyl)cyclopropane-1-carboxamide] |  |  |  |  |  | +++ (≥350) |  | > 150% | < 3 µM | < 3 µM |
| Cc1cnc(OC(C)C)c(C2(C(=O)NS(=O)(=O)c3cccc4nc(C)ccc34)CC2)c1 [Example GI-58, 1-{5-methyl-2-[(propan-2-yl)oxy]pyridin-3-yl}-N-(2-methylquinoline-5-sulfonyl)cyclopropane-1-carboxamide] |  |  |  |  |  | +++ (≥350) |  | > 150% | < 3 µM | < 3 µM |
| CC(C)Oc1ncc(Br)cc1C1(C(=O)NS(=O)(=O)c2cccc3c2CCCN3)CC1 [Example GI-2, 1-{5-bromo-2-[(propan-2-yl)oxy]pyridin-3-yl}-N-(1,2,3,4-tetrahydroquinoline-5-sulfonyl)cyclopropane-1-carboxamide] | < 3 µM | +++ (≥350) | < 3 µM | > 150% |  |  |  |  |  |  |
| COc1ccc(C2CCC2)cc1C1(C(=O)NS(=O)(=O)c2cccc3[nH]ncc23)CC1 [Example I-56, 1-(5-cyclobutyl-2-methoxyphenyl)-N-(1H-indazole-4-sulfonyl)cyclopropane-1-carboxamide] | < 3 µM | +++ (≥350) | < 3 µM | > 150% |  |  |  |  |  |  |
| COc1cccc(OC)c1C1(C(=O)NS(=O)(=O)c2cccc3ccccc23)CC1 [Example I-7, 1-(2,6-dimethoxyphenyl)-N-(naphthalene-1-sulfonyl)cyclopropane-1-carboxamide] | 3 to 10 µM | +++ (≥350) | < 3 µM | > 150% |  |  |  |  |  |  |
| COc1ccc(C)c(OC)c1C1(C(=O)NS(=O)(=O)c2cccc3[nH]ccc23)CC1 [Example I-42, 1-(2,6-dimethoxy-3-methylphenyl)-N-(1H-indole-4-sulfonyl)cyclopropane-1-carboxamide] | < 3 µM | +++ (≥350) | < 3 µM | > 150% |  |  |  |  |  |  |
| O=C(NS(=O)(=O)c1cccc2ncccc12)C1(c2cc(Cl)cnc2N2CCCC2)CC1 [Example GI-35, 1-[5-chloro-2-(pyrrolidin-1-yl)pyridin-3-yl]-N-(quinoline-5-sulfonyl)cyclopropane-1-carboxamide] |  |  |  |  |  | +++ (≥350) |  | > 150% | < 3 µM | 3 to 10 µM |

Second part, the molecule after the results:

| EC50 [1] | Maximum % activity (with co-corrector) (with co-corrector) | EC50 [2] | Emax (without co-corrector) | EC50 (with co-corrector) [3] | Maximum % activity (with co-corrector) [3] | EC50 (without co-corrector) [4] | Emax [4] | EC50 [5] | EC50 [6] | Structure (SMILES) |
| --- | --- | --- | --- | --- | --- | --- | --- | --- | --- | --- |
| < 3 µM | +++ (≥350) | < 3 µM | > 150% |  |  |  |  |  |  | CCOCC(C)(C)c1ccc(OC)c(C2(C(=O)NS(=O)(=O)c3cccc4nc(C)ccc34)CC2)c1 [II-111] |
|  |  |  |  | ++^a | ++ (≥150 and <350) | ++^a | 50 to 150% |  |  | Cc1ccc2c(S(=O)(=O)NC(=O)C3(c4cc(C5CC5)cnc4N4CCOCC4)CC3)cccc2n1 [GIII-20] |
| 3 to 10 µM | +++ (≥350) | 3 to 10 µM | > 150% |  |  |  |  |  |  | O=C(NS(=O)(=O)c1cccc2ccccc12)C1(c2cccc(Br)c2)CC1 [Example III-92, 1-(3-bromophenyl)-N-(naphthalene-1-sulfonyl)cyclopropane-1-carboxamide] |
|  |  |  |  |  | +++ (≥350) |  | > 150% | 3 to 10 µM | 3 to 10 µM | COc1nc(N(C)C)ccc1C1(C(=O)NS(=O)(=O)c2cccc3ncccc23)CC1 [GII-18, 1-[6-(dimethylamino)-2-methoxypyridin-3-yl]-N-(quinoline-5-sulfonyl)cyclopropane-1-carboxamide] |
|  |  |  |  |  | + (<150) |  | < 50% | > 10 µM | > 10 µM | O=C(NS(=O)(=O)c1cccc2ncccc12)C1(c2cc(Cl)cnc2C(F)(F)F)CC1 [GIII-2] |
| < 3 µM | +++ (≥350) | < 3 µM | > 150% |  |  |  |  |  |  | COc1cc(C2CCC2)cc(OC)c1C1(C(=O)NS(=O)(=O)c2cccc3nc(C)ccc23)CC1 [II-69] |
| 3 to 10 µM | +++ (≥350) | < 3 µM | > 150% |  |  |  |  |  |  | COc1ccc(C(C)C)cc1C1(C(=O)NS(=O)(=O)c2cccc3c2CCCN3)CCC1 [II-20] |
|  |  |  |  |  | +++ (≥350) |  | > 150% | 3 to 10 µM | 3 to 10 µM | Cc1cnc(N2CCCC2)c(C2(C(=O)NS(=O)(=O)c3cccc4ncccc34)CC2)c1 [GII-38, 1-[5-methyl-2-(pyrrolidin-1-yl)pyridin-3-yl]-N-(quinoline-5-sulfonyl)cyclopropane-1-carboxamide] |
| > 10 µM | + (<150) | > 10 µM | < 50% |  |  |  |  |  |  | Cc1cccc(C2(C(=O)NS(=O)(=O)c3ccccc3C)CCOCC2)c1 [Example III-82, N-(2-methylbenzene-1-sulfonyl)-4-(3-methylphenyl)oxane-4-carboxamide] |
| > 10 µM | + (<150) | > 10 µM | < 50% |  |  |  |  |  |  | O=C(NS(=O)(=O)c1cccc(OC(F)(F)F)c1)C1(c2ccc(Cl)cc2Cl)CC1 [Example III-64, 1-(2,4-dichlorophenyl)-N-[3-(trifluoromethoxy)benzene-1-sulfonyl]cyclopropane-1-carboxamide] |
|  |  |  |  | ++^a | ++ (≥150 and <350) |  | < 50% |  | > 10 µM | CC(C)Oc1cnc(Cl)c(C2(C(=O)NS(=O)(=O)c3cccc4ncccc34)CC2)c1 [GIII-13] |
|  |  |  |  | ++^a | ++ (≥150 and <350) | ++^a | < 50% |  |  | Cc1cnc(F)cc1C1(C(=O)NS(=O)(=O)c2cccc3c2CCCN3)CC1 [GIII-7] |
